Measurements as given in US8071810B2, “C5a receptor antagonists” (Jerini AG, priority 2005, dated 2011).
Read-outs that look alike come from different tables or passages of the source.

Target: T1, human C5a receptor (CD88) (Homo sapiens, UniProt P21730)
T1 construct: expressed in transfected cells; host or cells: rat basophilic leukemia (RBL) cells, stably transfected
T1 sequence (P21730 1-350): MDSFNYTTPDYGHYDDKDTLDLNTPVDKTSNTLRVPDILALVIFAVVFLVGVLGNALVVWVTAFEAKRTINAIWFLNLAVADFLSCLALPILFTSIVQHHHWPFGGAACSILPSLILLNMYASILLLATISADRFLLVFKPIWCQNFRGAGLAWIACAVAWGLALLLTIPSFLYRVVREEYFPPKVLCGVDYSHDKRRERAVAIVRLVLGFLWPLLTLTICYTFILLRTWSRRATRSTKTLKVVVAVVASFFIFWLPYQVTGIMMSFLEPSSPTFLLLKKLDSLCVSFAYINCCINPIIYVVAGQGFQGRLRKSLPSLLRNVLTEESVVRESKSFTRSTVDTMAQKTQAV
Assay: C5a induced enzyme (glucosaminidase) release assay in RBL cells expressing the human C5a receptor (Example 28)
Format: cell-based
Settings: RBL cells with human C5aR
Description: Basophile leukemia cells from rats (RBL), which express the human C5a receptor (CD88), are cultivated in DMEM with 10% fetal calf serum, 100 U/ml penicillin, 100 μg/ml streptomycin and 2 mM glutamin (all constituents are from Biochrome, Berlin) at 37° C. and with 10% CO2 until a confluent layer is obtained. All following details refer to a tissue culture flask with 75 cm^2 surface. The used up medium is removed. The cells are washed with 10 ml PBS (Dulbecco's PBS, Biochrome) and then covered with 3 ml cell dissociation solution (CDS, Sigma). The cells are incubated for 1 minute at room temperature. Then the CDS is removed and the cells are incubated for further 10-15 minutes at 37° C. to detach the cells completely from the flask. 20 μl solution of the compound to be testet are used in the assay. […] The dilution series are prepared in ⅓ or ½ steps. […] The cells are counted and centrifuged (200 g, 10 min). The cell pellet is taken up with pre-heated HAG-CM, and the cell density is adjusted to 2×10^6 Zellen/ml. The cells are incubated for 5 minutes at 37° C. 2.7 μl of a cytochalasin B solution (1000 μg/ml in DMSO, Sigma) are added per ml cell suspension. The Zellen are incubated for another 3 min at 37° C. Then, 75 μl of the cell suspension are added to the 20 μl solution containing the compounds to be tested. […] The cells are again incubated for 10 minutes at 37° C. […] After this the plates are put on ice and centrifuged for 3 minutes at 1200×g and 4° C. […] The plate is incubated for 1 hour at 37° C. […] The IC50 value is determined by solving the four parameter equation y=((A−D)/(1+(x/C)^B))+D.

[1] = inhibition of C5a induced enzyme release, read-out: Activity-range (antagonistic activity, IC50 enzyme release)
[2] = read-out: IC50 for the inhibition of C5a induced enzyme release

Row | Structure (SMILES) | IC50 [1] [nM] | also measured
1 | CCc1c(N)cc(Cl)c(CC)c1NC(=O)N(Cc1ccc(Cl)cc1)c1ccc(SC(F)(F)F)cc1 [compound 93, 3-(3-amino-5-chloro-2,6-diethyl-phenyl)-1-(4-chloro-benzyl)-1-(4-trifluoromethylsulfanyl-phenyl)-urea] | 200 to 5000 | 
2 | CCc1ccc(N)c(CC)c1NC(=O)N(Cc1ccc(OC)cc1)c1ccc(C(C)C)cc1 [compound 28, 3-(3-amino-2,6-diethyl-phenyl)-1-(4-isopropyl-phenyl)-1-(4-methoxy-benzyl)-urea] | 200 to 5000 | 
3 | CCc1c(N)cc(Cl)c(CC)c1NC(=O)N(Cc1ccc(C)nc1)c1ccc(C(C)C)cc1 [compound 76, 3-(3-amino-5-chloro-2,6-diethyl-phenyl)-1-(4-isopropyl-phenyl)-1-(6-methyl-pyridin-3-ylmethyl)-urea] | 60 to 200 | 
4 | CCc1c(N)cc(Cl)c(CC)c1NC(=O)N(c1ccc(C(C)C)cc1)[C@H]1CCCc2ccccc21 [compound 42, (S)-3-(3-amino-5-chloro-2,6-diethyl-phenyl)-1-(4-isopropyl-phenyl)-1-(1,2,3,4-tetrahydro-naphthaline-1-yl)-urea] | 60 to 200 | 
5 | COc1ccc(CN(C(=O)Nc2c(C)ccc3c2CCCN3)c2ccc(C(C)C)cc2)cc1 [compound 40, 1-(4-isopropyl-phenyl)-1-(4-methoxy-benzyl)-3-(6-methyl-1,2,3,4-tetrahydro-chinolin-5-yl)-urea] | > 5000 | 
6 | CCc1ccc(CN(C(=O)Nc2c(CC)c(N)cc(Cl)c2CC)c2ccc(C(C)C)cc2)cc1 [compound 35, 3-(3-amino-5-chloro-2,6-diethyl-phenyl)-1-(4-ethyl-benzyl)-1-(4-isopropyl-phenyl)-urea] | 200 to 5000 | 
7 | Cc1ccc([C@H](C)N(C(=O)Nc2c(C)c(N)cc(Cl)c2C)c2ccc(C(C)C)cc2)cc1 [compound 79, (S)-3-(3-amino-5-chloro-2,6-dimethyl-phenyl)-1-(4-isopropyl-phenyl)-1-(1-p-tolyl-ethyl)-urea] | 200 to 5000 | 
8 | CCc1ccc(N(Cc2ccc3c(c2)ncn3C)C(=O)Nc2c(CC)c(N)cc(Cl)c2CC)cc1 [compound 118, 3-(3-amino-5-chloro-2,6-diethyl-phenyl)-1-(4-ethyl-phenyl)-1-(1-methyl-1H-benzoimidazol-5-ylmethyl)-urea] | 200 to 5000 | 
9 | COc1ccc(CN(C(=O)Nc2c(C(C)C)cccc2C(C)C)c2ccc(C(C)C)cc2)cc1 [compound 134, 3-(2,6-diisopropyl-phenyl)-1-(4-isopropyl-phenyl)-1-(4-methoxy-benzyl)-urea] | 200 to 5000 | 
10 | CCc1c(N)cc(Cl)c(CC)c1NC(=O)N(Cc1ccc(Cl)cc1)c1ccc(NC)cc1 |  | IC50 [2]: 19 nM
11 | CCc1ccc(N(Cc2ccc(OC)cc2)C(=O)Nc2c(CC)c(N)cc(Cl)c2CC)cc1 [compound 32, 3-(3-amino-5-chloro-2,6-diethyl-phenyl)-1-(4-ethyl-phenyl)-1-(4-methoxy-benzyl)-urea] | 200 to 5000 | 
12 | CCNc1ccc(N(Cc2ccc(Cl)cc2)C(=O)Nc2c(CC)c(N)cc(Cl)c2CC)cc1 [compound 136, 3-(3-amino-5-chloro-2,6-diethyl-phenyl)-1-(4-chloro-benzyl)-1-(4-ethylamino-phenyl)-urea] | < 60 | 
13 | CCc1ccc(N)c(CC)c1NC(=O)N(c1ccc(C(C)C)cc1)[C@H](C)c1ccc(C)cc1 [compound 68, (R)-3-(3-amino-2,6-diethyl-phenyl)-1-(4-isopropyl-phenyl)-1-(1-p-tolyl-ethyl)-urea] | 200 to 5000 | 
14 | CCc1c(N)cc(Cl)c(CC)c1NC(=O)N(Cc1ccccc1OC)c1ccc(C(C)C)cc1 [compound 62, 3-(3-amino-5-chloro-2,6-diethyl-phenyl)-1-(4-isopropyl-phenyl)-1-(2-methoxy-benzyl)-urea] | 200 to 5000 | 
15 | CCc1ccc(N(C(=O)Nc2c(CC)c(N)cc(Cl)c2CC)[C@@H](C)c2ccc(F)cc2)cc1 [compound 82, (S)-3-(3-amino-5-chloro-2,6-diethyl-phenyl)-1-(4-ethyl-phenyl)-1-[1-(4-fluoro-phenyl)-ethyl]-urea] | 60 to 200 | 
16 | CCc1ccc(N)c(CC)c1NC(=O)N(Cc1ccccc1OC)c1ccc(C(C)C)cc1 [compound 63, 3-(3-amino-2,6-diethyl-phenyl)-1-(4-isopropyl-phenyl)-1-(2-methoxy-benzyl)-urea] | 200 to 5000 | 

Row | Structure (SMILES) | IC50 [1] [nM] | also measured
17 | CCc1c(N)cc(Cl)c(CC)c1NC(=O)N(Cc1ccc(S(C)(=O)=O)cc1)c1ccc(C(C)C)cc1 [compound 64, 3-(3-amino-5-chloro-2,6-diethyl-phenyl)-1-(4-isopropyl-phenyl)-1-(4-methansulfonyl-benzyl)-urea] | 200 to 5000 | 
18 | CCc1ccc(N)c(CC)c1NC(=O)N(c1ccc(C(C)C)cc1)C1CCc2ccccc21 (centres unmarked) [compound 90, 3-(3-amino-2,6-diethyl-phenyl)-1-indane-1-yl-1-(4-isopropyl-phenyl)-urea] | 200 to 5000 | 
19 | CCc1c(N)cc(Cl)c(CC)c1NC(=O)N(Cc1ccc(C(F)(F)F)cc1)c1ccc(C(C)C)cc1 [compound 49, 3-(3-amino-5-chloro-2,6-diethyl-phenyl)-1-(4-isopropyl-phenyl)-1-(4-trifluormethyl-benzyl)-urea] | 200 to 5000 | 
20 | CCc1c(N)cc(Cl)c(CC)c1NC(=O)N(c1ccc(OC)c(F)c1)[C@@H](C)c1ccc(Cl)cc1 [compound 94, (S)-3-(3-amino-5-chloro-2,6-diethyl-phenyl)-1-[1-(4-chloro-phenyl)-ethyl]-1-(3-fluoro-4-methoxy-phenyl)-urea] | < 60 | 
21 | CCc1c(N)cc(Cl)c(CC)c1NC(=O)N(Cc1ccc(Cl)cc1)c1cccc2ccccc12 [compound 108, 3-(3-amino-5-chloro-2,6-diethyl-phenyl)-1-(4-chloro-benzyl)-1-naphthaline-1-yl-urea] | 200 to 5000 | 
22 | CCc1c(N)cc(Cl)c(CC)c1NC(=O)N(Cc1ccc(OC(F)(F)F)cc1)c1ccc(C(C)C)cc1 [compound 33, 3-(3-amino-5-chloro-2,6-diethyl-phenyl)-1-(4-isopropyl-phenyl)-1-(4-trifluoromethoxy-benzyl)-urea] | 200 to 5000 | 
23 | CCc1ccc(N(C(=O)Nc2c(C(C)(C)C)ccc(N)c2C)[C@@H](C)c2ccc(Cl)cc2)cc1 [compound 111, (S)-3-(3-amino-6-tert-butyl-2-methyl-phenyl)-1-[1-(4-chloro-phenyl)-ethyl]-1-(4-ethyl-phenyl)-urea] | 200 to 5000 | 
24 | CCc1c(N)cc(Cl)c(CC)c1NC(=O)N(CCc1ccc(C)cc1)c1ccc(C(C)C)cc1 [compound 52, 3-(3-amino-5-chloro-2,6-diethyl-phenyl)-1-(4-isopropyl-phenyl)-1-(2-p-tolyl-ethyl)-urea] | 200 to 5000 | 
25 | CCc1ccc(N)c(CC)c1NC(=O)N(CCc1ccccc1)c1ccc(C(C)C)cc1 [compound 51, 3-(3-amino-2,6-diethyl-phenyl)-1-(4-isopropyl-phenyl)-1-phenethyl-urea] | 200 to 5000 | 
26 | COc1ccc2c(c1)C(C(=O)N(Cc1ccc(N(C)C)cc1)c1ccc(C(C)C)cc1)CCC2 (centres unmarked) [compound 12, 7-methoxy-1,2,3,4-tetrahydro-naphthalin-1-carbonsäure (4-dimethylamino-benzyl)-(4-isopropyl-phenyl)-amide, reference compound] | 60 to 200 | IC50 (IC50 for the inhibition of C5a induced enzyme release): 89 nM
27 | CCc1c(N)cc(Cl)c(CC)c1NC(=O)N(c1ccc(C(C)C)cc1)[C@@H](C)c1ccc(F)cc1 [(S)-3-(3-Amino-5-chlor-2,6-diethyl-phenyl)-1-[1-(4-fluor-phe] |  | IC50 [2]: 38 nM
28 | CCc1c(N)cc(Cl)c(CC)c1NC(=O)N(c1ccc([S+](C)[O-])cc1)[C@@H](C)c1ccc(Cl)cc1 (stereo partly drawn) [compound 95, (S)-3-(3-amino-5-chloro-2,6-diethyl-phenyl)-1-[1-(4-chloro-phenyl)-ethyl]-1-(4-methanesulfinyl-phenyl)-urea] | 200 to 5000 | 
29 | CCc1ccc(NCC(=O)OC)c(CC)c1NC(=O)N(Cc1ccc(OC)cc1)c1ccc(C(C)C)cc1 [compound 30, {2,4-diethyl-3-[3-(4-isopropyl-phenyl)-3-(4-methoxy-benzyl)-ureido]-phenylamino}-acetic acid methyl ester] | 200 to 5000 | 
30 | CCc1c(N)cc(Cl)c(CC)c1NC(=O)N(Cc1ccc2c(c1)CCO2)c1ccc(C(C)C)cc1 [compound 65, 3-(3-amino-5-chloro-2,6-diethyl-phenyl)-1-(2,3-dihydro-benzofuran-5-ylmethyl)-1-(4-isopropyl-phenyl)-urea] | 60 to 200 | 
31 | CCc1c(N)cc(Cl)c(CC)c1NC(=O)N(Cc1ccc(Cl)nc1)c1ccc(C(C)C)cc1 |  | IC50 [2]: 62 nM
